Results published in patent publication US20070155771A1, “Methods and means for treating protein conformational disorders” (priority 2003, published 2007).

Assays:
Format in all cases: cell-based, African green monkey
[1] = test system: COS-7 cells expressing EGFP tagged wild-type HD exon 1 protein with 23 glutamine repeats, EGFP-polyalanine with 7 repeats or empty EGFP; test: Control constructs (Q23, A7, empty EGFP) in transiently transfected COS-7 cells; conditions: 10 mM 3-MA
Protocol: African green monkey kidney cells (COS-7) were grown in Dulbecco's Modified Eagle Medium (DMEM, Sigma) supplemented with 10% Fetal Bovine Serum (FBS), 100 U/ml Penicillin/Streptomycin, 2 mM L-Glutamine and 1 mM Sodium Pyruvate at 37° C., 5% Carbon dioxide. The cells were grown on coverslips in six-well plates for immunofluorescence analysis, or were directly grown in six-well plates to 60-80% confluency for 24 hours for western blot analysis. Transfection was done using LipofectAMINE reagent (Invitrogen) using the manufacturer's protocol. The transfection mixture was replaced by normal culture medium after 5 hours incubation at 37° C. and the transfected cells were analysed by immunofluorescence or immunoblot 48 hours after transfection. […] Equal amounts of water or DMSO were added to the untreated controls, where relevant. The cells on coverslips were rinsed with 1×PBS, fixed with 4% paraformaldehyde in 1×PBS for 20 min and mounted in […] supplemented with 4',6-diamidino-2-phenylindole (DAPI, 3 μg/ml, Sigma) to allow visualisation of nuclear morphology. […] Aggregate formation and nuclear morphology were assessed using a fluorescence microscope. 200 EGFP positive COS-7 cells were selected and the proportion of cells with aggregates was counted. […]

[2] = test system: mTOR-dependent TOP-translation; test: Luciferase reporter assay with non-typical TOP sequence in COS-7 cells co-transfected with Q23 or Q74
Protocol: PC12 cells stably expressing Q23 or Q74 were transfected with a luciferase construct having a 5′ untranslated region from the eEF2 gene containing a terminal oligopyrimidine tract (TOP-luciferase) or without the TOP sequence (Control-luciferase) along with β-galactosidase (to control transfection efficiency). Transfected cells were maintained in serum free medium with doxycycline for 36 hours following which the cells were stimulated with 15% serum with or without rapamycin for 3 h. Cells were then lysed and luciferase assays were performed according to standard protocol. COS-7 cells were co-transfected with Q23 or Q74 with control- or TOP-luciferase along with β-gal and experiments were performed as above. […] Experiments were performed in sextuplicate and repeated several times.
The data in FIG. 11C is represented as explained above for FIG. 10C.

[3] = test system: COS-7 cells expressing an exon 1 fragment of the HD gene with 74 glutamines (Q74); test: Aggregate formation and abnormal cell nuclei in transiently transfected COS-7 cells expressing Q74; conditions: 24 hours post transfection; 0.2 μg/ml rapamycin

Molecule	aggregate formation in cells expressing Q23 or A7 [1]	levels of empty EGFP [1]	rapamycin-dependent reduction in luciferase activity (non-typical TOP sequence) ([2]; COS-7 cells transfected with Q23) [%]	rapamycin-dependent reduction in luciferase activity (non-typical TOP sequence) ([2]; COS-7 cells transfected with Q74)	cell death in Q74-expressing cells [3]	proportions of cells with Q74 aggregates [3]
Cn1cnc(N)c2ncnc1-2 [3-MA, 3-methyl adenine]	did not cause aggregate formation	did not cause any change	–	–	–	–
rapamycin	–	–	23	no such effect	reduced	reduced
